Data: PubChem BioAssay (NCI)
Values joined by “and” are separate entries in the source; they are usually repeats but may differ in a detail not shown here. Identical values can stand only once.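 Each compound was tested at five concentrations against cells in 96-well plates for 48 hours. GI50 = concentration required for 50% inhibition of growth. At the TGI there is no net growth.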

How the values were obtained:
Assay in all cases: growth of human tumour cells (NCI), 48 h
HT29 colon = system: HT29 colon
K-562 leukemia = system: K-562 leukemia
LOX IMVI melanoma = system: LOX IMVI melanoma
NCI-H23 lung = system: NCI-H23 lung
RPMI-8226 leukemia = system: RPMI-8226 leukemia
RXF 393 renal = system: RXF 393 renal
SF-539 CNS = system: SF-539 CNS
SK-MEL-5 melanoma = system: SK-MEL-5 melanoma
SW-620 colon = system: SW-620 colon

For `CC(=O)NNc1nc(C)c(C(/C=C/c2ccc(Cl)cc2)=N\NS(=O)(=O)c2ccc(C)cc2)s1`, the TGI (HT29 colon) was > 100 µM, the TGI (K-562 leukemia) was > 100 µM and the TGI (LOX IMVI melanoma) was > 100 µM. The TGI (NCI-H23 lung) was > 100 µM, the TGI (RPMI-8226 leukemia) was > 100 µM and the TGI (RXF 393 renal) was > 100 µM. For the same compound, the TGI (SF-539 CNS) was > 100 µM, the TGI (SK-MEL-5 melanoma) was > 100 µM and the TGI (SW-620 colon) was > 100 µM.

`CCC(C(=O)[O-])C(=O)[O-].CCC(C(=O)[O-])C(=O)[O-].N.N.NCCCCCN.[Pt+4].[Pt+4]` was tested, and the GI50 (HT29 colon) was > 100 µM, the TGI (HT29 colon) was > 100 µM and the GI50 (K-562 leukemia) was > 100 µM. For the same compound, the TGI (K-562 leukemia) was > 100 µM, the GI50 (LOX IMVI melanoma) was > 100 µM and the TGI (LOX IMVI melanoma) was > 100 µM. For the same compound, the GI50 (NCI-H23 lung) was > 100 µM, the TGI (NCI-H23 lung) was > 100 µM and the GI50 (RPMI-8226 leukemia) was > 100 µM. For the same compound, the TGI (RPMI-8226 leukemia) was > 100 µM, the GI50 (RXF 393 renal) was > 100 µM and the TGI (RXF 393 renal) was > 100 µM. The GI50 (SF-539 CNS) was > 100 µM, the TGI (SF-539 CNS) was > 100 µM and the GI50 (SK-MEL-5 melanoma) was > 100 µM. For the same compound, the TGI (SK-MEL-5 melanoma) was > 100 µM, the GI50 (SW-620 colon) was > 100 µM and the TGI (SW-620 colon) was > 100 µM.

`Cc1ccc(S(=O)(=O)CNC(=S)CCCC(=S)NCS(=O)(=O)c2ccc(C)cc2)cc1` was tested, and the TGI (HT29 colon) was > 100 µM, the TGI (K-562 leukemia) was > 100 µM and the TGI (LOX IMVI melanoma) was 39.4 µM. The TGI (NCI-H23 lung) was > 100 µM, the TGI (RPMI-8226 leukemia) was > 100 µM and the TGI (RXF 393 renal) was > 100 µM. The TGI (SF-539 CNS) was > 100 µM, the TGI (SK-MEL-5 melanoma) was > 100 µM and the TGI (SW-620 colon) was > 100 µM.

For `Cc1ccc(N=C2CSc3nnc(-c4csc5c4CCCC5)n3N2)cc1`, the GI50 (HT29 colon) was 0.175 µM, the TGI (HT29 colon) was > 50 µM and the GI50 (K-562 leukemia) was 0.156 µM. The TGI (K-562 leukemia) was > 50 µM, the GI50 (LOX IMVI melanoma) was 0.302 µM and the TGI (LOX IMVI melanoma) was > 50 µM. The GI50 (NCI-H23 lung) was 0.295 µM, the TGI (NCI-H23 lung) was > 50 µM and the GI50 (RPMI-8226 leukemia) was 0.203 µM. The TGI (RPMI-8226 leukemia) was > 50 µM, the GI50 (RXF 393 renal) was 0.162 µM and the TGI (RXF 393 renal) was > 50 µM. The GI50 (SF-539 CNS) was 0.131 µM, the TGI (SF-539 CNS) was 0.473 µM and the GI50 (SK-MEL-5 melanoma) was 0.175 µM. For the same compound, the TGI (SK-MEL-5 melanoma) was > 50 µM, the GI50 (SW-620 colon) was 0.204 µM and the TGI (SW-620 colon) was > 50 µM.

For `CC(=O)OCC1OC(OC2CC3C(C)(C)C(OC(C)=O)CC[C@]3(C)C3CCC45CC4(CC[C@H]5C(C)CC(O)C4OC4(C)C)[C@]23C)C(O)C(O)C1O` (stereo not given in full), the GI50 (HT29 colon) was 1.86 µM, the TGI (HT29 colon) was 1.73 µM and 3.38 µM and the TGI (K-562 leukemia) was 2.22 µM. The GI50 (LOX IMVI melanoma) was 1.25 µM, the TGI (LOX IMVI melanoma) was 3.72 µM and 2.58 µM and the GI50 (NCI-H23 lung) was 2.55 µM. The TGI (NCI-H23 lung) was 10.4 µM and 6.58 µM, the TGI (RPMI-8226 leukemia) was 5 µM and the TGI (RXF 393 renal) was 4 µM. For the same compound, the GI50 (SF-539 CNS) was 2.47 µM, the TGI (SF-539 CNS) was 8.92 µM and 6.62 µM and the TGI (SK-MEL-5 melanoma) was 5.79 µM. For the same compound, the GI50 (SW-620 colon) was 3.46 µM and the TGI (SW-620 colon) was 9.98 µM and 11.3 µM.

In the case of `CN(C)C(=O)CC(C(=O)O)c1c[nH]c2ccccc12` (stereo not given), the TGI (HT29 colon) is reported as > 100 µM, the TGI (K-562 leukemia) is reported as > 100 µM and the TGI (LOX IMVI melanoma) is reported as > 100 µM. The TGI (NCI-H23 lung) was > 100 µM, the TGI (RPMI-8226 leukemia) was > 100 µM and the TGI (RXF 393 renal) was > 100 µM. The TGI (SF-539 CNS) was > 100 µM, the TGI (SK-MEL-5 melanoma) was > 100 µM and the TGI (SW-620 colon) was > 100 µM.

`COc1cc2c3c(n(CCCN4CCN(C)CC4)c(=O)c2cc1OC)-c1cc2c(cc1C3=O)OCO2` was tested, and the GI50 (HT29 colon) was 16.9 µM, the TGI (HT29 colon) was > 100 µM and the GI50 (K-562 leukemia) was 6.49 µM. The TGI (K-562 leukemia) was 22 µM, the GI50 (LOX IMVI melanoma) was 3.81 µM and the TGI (LOX IMVI melanoma) was 20.4 µM. For the same compound, the GI50 (NCI-H23 lung) was 11.9 µM, the TGI (NCI-H23 lung) was 24.1 µM and the GI50 (RPMI-8226 leukemia) was 2.39 µM. It also gave a TGI (RPMI-8226 leukemia) of 14.1 µM, a GI50 (RXF 393 renal) of 20.5 µM and a TGI (RXF 393 renal) of 55 µM. For the same compound, the GI50 (SF-539 CNS) was 17.7 µM, the TGI (SF-539 CNS) was 38.2 µM and the GI50 (SK-MEL-5 melanoma) was 14.2 µM. It also gave a TGI (SK-MEL-5 melanoma) of 32.2 µM, a GI50 (SW-620 colon) of 11.2 µM and a TGI (SW-620 colon) of 54.1 µM.
